Patent US10738041B2, “Ferroportin inhibitors” (Vifor (International) AG, priority 2015, dated 2020)

These compounds were tested against T1, ferroportin (Fpn) (Mus musculus, UniProt Q9JHI9) (assay: Hepcidin Internalization Assay (J774)). Details: IC50 of unlabeled hepcidin in the hepcidin internalization assay, J774 cells, TMR-hepcidin 25 nM.
T1 construct: host or cells: J774 mouse macrophage cell line, Fe(III)-NTA induced
T1 sequence (Q9JHI9 1-570): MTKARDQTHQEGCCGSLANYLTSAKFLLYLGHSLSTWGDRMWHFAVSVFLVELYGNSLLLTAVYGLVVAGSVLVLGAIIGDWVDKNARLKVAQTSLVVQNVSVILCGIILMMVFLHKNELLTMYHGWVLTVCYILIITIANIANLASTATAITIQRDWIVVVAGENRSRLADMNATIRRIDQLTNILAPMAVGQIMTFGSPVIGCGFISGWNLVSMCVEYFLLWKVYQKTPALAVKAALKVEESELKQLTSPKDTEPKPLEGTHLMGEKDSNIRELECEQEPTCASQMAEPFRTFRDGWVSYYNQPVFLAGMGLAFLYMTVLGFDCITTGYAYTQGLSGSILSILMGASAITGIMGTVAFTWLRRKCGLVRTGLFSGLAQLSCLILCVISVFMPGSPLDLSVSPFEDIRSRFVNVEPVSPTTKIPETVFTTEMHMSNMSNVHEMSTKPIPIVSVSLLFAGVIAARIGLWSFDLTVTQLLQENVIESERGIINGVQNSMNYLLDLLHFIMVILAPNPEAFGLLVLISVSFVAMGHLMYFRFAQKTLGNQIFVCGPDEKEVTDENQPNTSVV
Type: cell-based
In short: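 Inhibition of fluorescent TMR-hepcidin uptake via ferroportin was imaged in fixed J774 cells after a 2 h, 37 °C co-incubation with compound dilutions; cells were pre-cultured overnight with 200 μM Fe(III)NTA. Internalized TMR signal per cell (Sum(Mean)) was fitted as log(inhibitor) vs. response for IC50, in triplicate.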
Compound `CC[C@H](C)[C@@H]1NC(=O)[C@@H](NC(=O)[C@@H](NC(=O)[C@@H]2CCCN2C(=O)[C@H](Cc2ccccc2)NC(=O)[C@H](Cc2c[nH]cn2)NC(=O)[C@@H](NC(=O)[C@@H](N)CC(=O)O)[C@@H](C)O)[C@@H](C)CC)CSSC[C@@H](C(=O)N[C@@H](CCCCN)C(=O)N[C@H](C(=O)O)[C@@H](C)O)NC(=O)[C@@H]2CSSC[C@@H]3NC(=O)[C@@H]4CSSC[C@H](NC(=O)[C@H](Cc5ccccc5)NC1=O)C(=O)N[C@@H](CSSC[C@H](NC(=O)[C@H](CCCCN)NC(=O)[C@H](CO)NC(=O)[C@H](CCCNC(=N)N)NC(=O)[C@H](Cc1c[nH]cn1)NC3=O)C(=O)NCC(=O)N[C@@H](CCSC)C(=O)N2)C(=O)NCC(=O)N4` [hepcidin, reference compound] has an IC50 of 15 ± 11 nM.

Same assay, conditions: average of multiple measurements; inhibition of TMR-hepcidin (25 nM) internalization into J774 cells; read-out: J774 IC50
Work on `O=C(NCc1ccccn1)c1csc(CCNCc2nc3ccccc3[nH]2)n1` [Example 12] yielded an IC50 of 80 nM.
Compound `O=C(NC1CCc2cccnc21)c1csc(CCNCc2nc3ccccc3[nH]2)n1` (stereo not drawn) [Example 39] has an IC50 of 70 nM.
With `O=C(NCc1ncccc1Cl)c1csc(CCNCc2nc3ccccc3[nH]2)n1` [Example 82] the IC50 was 6 nM.
With `Cc1cnccc1CNC(=O)c1csc(CCNCc2nc3ccccc3[nH]2)n1` [Example 90] the IC50 was 25 nM.
Work on `O=C(NCc1ncccc1F)c1csc(CCNCCc2nc3ccccc3[nH]2)n1` [Example 94] yielded an IC50 of 12 nM.
`O=C(NCc1ncccc1F)c1cnn(CCNCCc2nc3ccccc3[nH]2)c1` [Example 111] gave an IC50 of 35 nM.
For `O=C(NCc1ncc(F)cc1F)c1csc(CCNCCc2nc3ccccc3[nH]2)n1` [Example 116], the IC50 was 1000 nM.
With `O=C(NCc1ncccc1F)c1csc(CNCCc2nc3ccccc3[nH]2)n1` [Example 118] the IC50 was 103 nM.
In the case of `O=C(NCc1ncccc1F)c1csc(CCNCCc2nc3cc(F)ccc3[nH]2)n1` [Example 120], the IC50 is reported as 34 nM.
With `O=C(NCc1cccnn1)c1csc(CCNCCc2nc3ccccc3[nH]2)n1` [Example 122] the IC50 was 26 nM.
Compound `O=C(NCc1ncccc1F)c1coc(CCNCc2nc3ccccc3[nH]2)n1` [Example 126] has an IC50 of 96 nM.
Work on `O=C(NCc1ncccc1F)c1coc(CCNCCc2nc3ccccc3[nH]2)n1` [Example 127] yielded an IC50 of 9 nM.
Work on `O=C(NCc1ncccc1F)c1csc(CCCNCc2nc3ccccc3[nH]2)n1` [Example 134] yielded an IC50 of 377 nM.
Compound `O=C(NCc1ccccn1)c1coc(CCNCc2nc3ccccc3[nH]2)n1` [Example 137] has an IC50 of 514 nM.
`O=C(NCc1ncccc1Cl)c1cnn(CCNCc2nc3ccccc3[nH]2)c1` [Example 138] gave an IC50 of 179 nM.
In the case of `O=C(NCc1ncccc1Cl)c1coc(CCNCc2nc3ccccc3[nH]2)n1` [Example 141], the IC50 is reported as 167 nM.
`O=C(NCc1ncccc1Cl)c1cnn(CCNCCc2nc3ccccc3[nH]2)c1` [Example 144] gave an IC50 of 12 nM.
`O=C(NCc1ncccc1F)c1nc(CCNCc2nc3ccccc3[nH]2)sc1Cl` [Example 151] gave an IC50 of 111 nM.
For `O=C(NCc1ncccc1F)c1csc(CCN(CCc2nc3ccccc3[nH]2)CCc2nc3ccccc3[nH]2)n1` [Example 152], the IC50 was 4 nM.
With `O=C(NCc1ncccc1F)c1nc(CCNCCc2nc3ccccc3[nH]2)sc1Cl` [Example 154] the IC50 was 8.3 nM.
`O=C(NC1CCc2cccnc21)c1csc(CCNCCc2nc3ccccc3[nH]2)n1` (stereo not drawn) [Example 158] gave an IC50 of 47 nM.
With `O=C(NCc1cccnn1)c1nc(CCNCc2nc3ccccc3[nH]2)sc1Cl` [Example 161] the IC50 was 361 nM.
Compound `O=C(NCc1ncccc1F)c1ncn(CCNCc2nc3ccccc3[nH]2)n1` [Example 169] has an IC50 of 750 nM.
`O=C(NCc1ncccc1F)c1ncn(CCNCCc2nc3ccccc3[nH]2)n1` [Example 181] was tested, and the IC50 was 135 nM.
`O=C(NCc1ncccc1F)c1csc(CCNCC(F)(F)c2nc3ccccc3[nH]2)n1` [Example 196] gave an IC50 of 1130 nM.
`O=C(NCc1ncccc1F)c1coc(C2CN(CCc3nc4ccccc4[nH]3)C2)n1` [Example 208] gave an IC50 of 12 nM.
`O=C(NCc1ncccc1F)c1cccc(CNCCc2nc3ccccc3[nH]2)c1` [Example 224] gave an IC50 of 140 nM.
With `O=C(NCc1ncccc1F)c1coc(CCNCCc2nc3c(Cl)cccc3[nH]2)n1` [Example 226] the IC50 was 49 nM.
`O=C(NCc1ncccc1F)c1coc(CCNCCc2nc3c(F)cccc3[nH]2)n1` [Example 228] was tested, and the IC50 was 46 nM.
Work on `Cc1oc(CCNCCc2nc3ccccc3[nH]2)nc1C(=O)NCc1ncccc1F` [Example 230] yielded an IC50 of 140 nM.
`O=C(NCc1ncccc1F)c1coc(C2CN(CCc3nc4c(F)cccc4[nH]3)C2)n1` [Example 239] was tested, and the IC50 was 36 nM.
`O=C(NCc1ncccc1F)c1csc(CCNCCc2nc3c(F)cccc3[nH]2)n1` [Example 243] was tested, and the IC50 was 32 nM.
`O=C(NCc1ncccc1F)c1coc(CCNCCc2nc3c(F)cc(F)cc3[nH]2)n1` [Example 249] gave an IC50 of 40 nM.
Compound `O=C(NCc1ncccc1F)c1coc(CCNCCc2nc3cc(F)ccc3[nH]2)n1` [Example 250] has an IC50 of 14 nM.
`O=C(NCc1ncccc1F)c1cncc(C2CN(CCc3nc4ccccc4[nH]3)C2)c1` [compound 237] showed an IC50 of 81 nM.
